Patent EP0377642B1, “HERBICIDES FOR WEED CONTROL IN RICE” (E.I. DU PONT DE NEMOURS AND COMPANY, priority 1987, dated 1989)

Tested on: Ludwigia linifolia
Test: Herbicidal efficacy with Bensulfuron methyl and 2,4-D in Thailand (Table 19)
Type: in vivo
Settings: 13 days after treatment
Procedure, shortened: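 Field trials: the sulfonylurea triazine methyl benzoate, alone or mixed with other herbicides, was sprayed with a hand sprayer onto transplanted or direct-seeded rice. Sites were in rice-growing areas of Southeast Asia and the U.S.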

Measured: % CONTROL OR INJURY LL

COC(=O)c1ccccc1CS(=O)(=O)NC(=O)Nc1nc(OC)cc(OC)n1 [Bensulfuron methyl, methyl 2-[[[[[(4,6-dimethoxy-2-pyrimidinyl)amino]carbonyl]amino]sulfonyl]methyl]benzoate]
100%: 10 GAI/HA | 15 GAI/HA | 20 GAI/HA
